Experimental data: PubChem BioAssay AID1996
Converted amounts (≈) assume the structure as drawn.

conditions: buffer; pH 7.4; 200.0 µM

**Q.** Which solubility kinetic does the source give for c1ccc(-c2csc(Nc3cccnc3)n2)cc1 here?
**A.** Its solubility kinetic is 2.2 µg/mL (≈ 8.68 µM).

**Q.** Which solubility kinetic does the source give for CC(=O)Nc1ccc2c(COC(=O)[C@@H](NS(=O)(=O)c3ccc(C)cc3)C(C)C)cc(=O)oc2c1 here?
**A.** Its solubility kinetic is 8.6 µg/mL (≈ 17.7 µM).

**Q.** Which solubility kinetic does the source give for Cc1nc2cccc(C(=O)Oc3ccc([N+](=O)[O-])cc3)c2o1 here?
**A.** Its solubility kinetic is 10.1 µg/mL (≈ 33.9 µM).

**Q.** Which solubility kinetic does the source give for Cc1c(N(C)CS(=O)(=O)O)c(=O)n(-c2ccccc2)n1C.[Na] here?
**A.** Its solubility kinetic is over 50.2 µg/mL.

**Q.** Which solubility kinetic does the source give for CN(CC(=O)NC1CC1)S(=O)(=O)c1cc(Cl)ccc1Cl here?
**A.** Its solubility kinetic is over 50.6 µg/mL.

**Q.** For NS(=O)(=O)c1cccc(NC(=O)c2ccc(S(=O)(=O)N3CCCCCC3)cc2)c1, which solubility kinetic is on record?
**A.** The solubility kinetic was 7.1 µg/mL (≈ 16.2 µM).

**Q.** Which solubility kinetic does the source give for COc1ccc(/C=C/C(=O)Nc2c(C(=O)O)[nH]c3ccccc23)cc1OC here?
**A.** Its solubility kinetic is over 55 µg/mL.

**Q.** For O=C(O)CNC(=O)C12CC3CC(CC(Cl)(C3)C1)C2, which solubility kinetic is on record?
**A.** Its solubility kinetic is over 40.8 µg/mL.

**Q.** With COC(=O)CC1=C(C(=O)OC)[C@@H](c2ccccc2[N+](=O)[O-])C(C#N)=C(N)O1 as the compound, how does the solubility kinetic read?
**A.** The solubility kinetic was over 56 µg/mL.

**Q.** With Cc1ccc(Oc2ncnc(N)c2[N+](=O)[O-])cc1 as the compound, how does the solubility kinetic read?
**A.** Its solubility kinetic is 12.3 µg/mL (≈ 50 µM).

**Q.** With Cc1ccc(CNc2nc(-c3cccnc3)nc3ccccc23)cc1 as the compound, how does the solubility kinetic read?
**A.** Its solubility kinetic is 2.5 µg/mL (≈ 7.66 µM).

**Q.** Which solubility kinetic does the source give for COC(=O)Cn1c(=O)c(C)nc2ccccc21 here?
**A.** Its solubility kinetic is over 34.8 µg/mL.

**Q.** For CCC(C)C(NC(N)=O)C(=O)Nc1ccc(C(=O)OC)cc1 (configuration not stated), which solubility kinetic is on record?
**A.** Its solubility kinetic is over 46.1 µg/mL.

**Q.** With COc1ccc(-c2nc(C)ncc2-c2ccccc2)c(O)c1 as the compound, how does the solubility kinetic read?
**A.** Its solubility kinetic is 6.4 µg/mL (≈ 21.9 µM).

**Q.** For Cc1cn2c(=O)c(C(=O)N3CCN(c4ccccc4)CC3)cnc2s1, which solubility kinetic is on record?
**A.** Its solubility kinetic is over 53.2 µg/mL.

**Q.** With O=C(Nc1ccc(Cl)cn1)c1ccc(Oc2ccccc2)cc1 as the compound, how does the solubility kinetic read?
**A.** Its solubility kinetic is under 0.3 µg/mL.

**Q.** With O=C(CCNC(=O)c1ccccc1)Nc1ccc(Cl)c(S(=O)(=O)N2CCCCC2)c1 as the compound, how does the solubility kinetic read?
**A.** The solubility kinetic was 29.8 µg/mL (≈ 66.2 µM).

**Q.** With O=Cc1cn(CC(=O)N2CCc3ccccc32)c2ccccc12 as the compound, how does the solubility kinetic read?
**A.** Its solubility kinetic is 0.4 µg/mL (≈ 1.31 µM).

**Q.** Which solubility kinetic does the source give for CC(C)(C)OC(=O)C(C)(C)O/N=C(\C(=O)O)c1csc(N)n1 here?
**A.** Its solubility kinetic is over 49.4 µg/mL.

**Q.** For Cc1c(C)n(-c2ccccc2)c2ncnc(NCCCN(C)C)c12, which solubility kinetic is on record?
**A.** Its solubility kinetic is over 48.5 µg/mL.

**Q.** With COc1ccc(OC)c(S(=O)(=O)N2CCN(C)CC2c2ccccc2)c1 (configuration not stated) as the compound, how does the solubility kinetic read?
**A.** Its solubility kinetic is over 56.5 µg/mL.

**Q.** With COc1ccc2[nH]cc(CCNC(=O)Cc3c(F)cccc3Cl)c2c1 as the compound, how does the solubility kinetic read?
**A.** Its solubility kinetic is 3.9 µg/mL (≈ 10.8 µM).

**Q.** For COc1ccc(NC(=O)c2ccc3c(c2)C(=O)N(Cc2ccncc2)C3=O)cc1S(N)(=O)=O, which solubility kinetic is on record?
**A.** Its solubility kinetic is 3.4 µg/mL (≈ 7.29 µM).

**Q.** For O=C1ON=C(c2ccccc2)/C1=C/c1cccnc1, which solubility kinetic is on record?
**A.** The solubility kinetic was 35.8 µg/mL (≈ 143 µM).

**Q.** With O=C1CC2C(=O)NCCN2C(=NC(=O)c2ccc(Cl)cc2)N1 (configuration not stated) as the compound, how does the solubility kinetic read?
**A.** The solubility kinetic was 23.5 µg/mL (≈ 73.3 µM).

**Q.** With COc1cccc(C(=O)NCC(=O)N/N=C/c2cccnc2)c1 as the compound, how does the solubility kinetic read?
**A.** Its solubility kinetic is over 46.8 µg/mL.

**Q.** Which solubility kinetic does the source give for CCOc1ccc(/C=C\c2nc(O)c([N+](=O)[O-])c(=O)[nH]2)cc1OCC here?
**A.** Its solubility kinetic is 29 µg/mL (≈ 83.5 µM).

**Q.** With COc1ccccc1CNC(=O)C1CCC(=O)N1C(C)C (configuration not stated) as the compound, how does the solubility kinetic read?
**A.** Its solubility kinetic is over 43.6 µg/mL.

**Q.** For Cc1cccc(NC(=O)CSc2cccc3cccnc23)c1C, which solubility kinetic is on record?
**A.** Its solubility kinetic is 3.7 µg/mL (≈ 11.5 µM).

**Q.** For Cc1cc(C)c2c(N)c(C(=O)Nc3ccc(F)cc3)sc2n1, which solubility kinetic is on record?
**A.** The solubility kinetic was 1.1 µg/mL (≈ 3.49 µM).

**Q.** Which solubility kinetic does the source give for Cc1ccc(Nc2cc(C)nc(-c3ccccc3)n2)cc1 here?
**A.** The solubility kinetic was 5.2 µg/mL (≈ 18.9 µM).

**Q.** Which solubility kinetic does the source give for CCOC(=O)c1cc(C(C)(C)C)nc(SC)c1C#N here?
**A.** The solubility kinetic was 1.3 µg/mL (≈ 4.67 µM).

**Q.** For CCOC(=O)NC(=S)Nc1ccc(C(C)(C)C)cc1Br, which solubility kinetic is on record?
**A.** Its solubility kinetic is 1.6 µg/mL (≈ 4.45 µM).

**Q.** With O=C(O)/C=C/c1ccc(S(=O)(=O)Nc2cccnc2)cc1 as the compound, how does the solubility kinetic read?
**A.** Its solubility kinetic is over 45.6 µg/mL.

**Q.** With COC(=O)C(NC(C)=O)(Nc1cc(C)ccn1)C(F)(F)F (configuration not stated) as the compound, how does the solubility kinetic read?
**A.** Its solubility kinetic is 40.7 µg/mL (≈ 133 µM).

**Q.** For CC12CCC(=O)N1C(C(=O)Nc1ccc(F)cc1)CS2 (configuration not stated), which solubility kinetic is on record?
**A.** The solubility kinetic was over 44.2 µg/mL.

**Q.** For COc1ccc(C(=O)O/N=C(/C(N)=O)P(=O)(OC(C)C)OC(C)C)cc1, which solubility kinetic is on record?
**A.** Its solubility kinetic is 49.1 µg/mL (≈ 127 µM).

**Q.** With CC1CCN(C(=O)Cn2cc([N+](=O)[O-])ccc2=O)c2ccccc2S1 (configuration not stated) as the compound, how does the solubility kinetic read?
**A.** Its solubility kinetic is over 53.9 µg/mL.

**Q.** Which solubility kinetic does the source give for O=C(CSc1nc(O)c(Cc2ccccc2)c(=O)[nH]1)c1ccccc1 here?
**A.** The solubility kinetic was over 52.9 µg/mL.

**Q.** For CCOc1ccc2nc(SCC(=O)Nc3nonc3C)[nH]c2c1, which solubility kinetic is on record?
**A.** Its solubility kinetic is 2.2 µg/mL (≈ 6.6 µM).

**Q.** With Cn1c(=O)[nH]c(=O)c2c1nc(N1CCNCC1)n2Cc1ccccc1 as the compound, how does the solubility kinetic read?
**A.** The solubility kinetic was 45.8 µg/mL (≈ 135 µM).

**Q.** Which solubility kinetic does the source give for COC(=O)c1ccc(CNC(=O)COC(=O)c2cccs2)cc1 here?
**A.** The solubility kinetic was 10.1 µg/mL (≈ 30.3 µM).

**Q.** With CC(=O)c1cccc(NC(=O)c2ccc(OC3CSC3)cc2)c1 as the compound, how does the solubility kinetic read?
**A.** Its solubility kinetic is under 0.7 µg/mL.

**Q.** With CCc1nc2c(c(=O)[nH]1)C(CC)(CC)Cc1ccccc1-2 as the compound, how does the solubility kinetic read?
**A.** Its solubility kinetic is 0.7 µg/mL (≈ 2.48 µM).

**Q.** Which solubility kinetic does the source give for Cc1[nH]n(-c2ccccc2)c(=O)c1/C=N/NC(=O)c1cccc(F)c1 here?
**A.** The solubility kinetic was over 50.8 µg/mL.

**Q.** With FCCCOc1ccc(CN2CCN(c3ccccc3F)CC2)cc1 as the compound, how does the solubility kinetic read?
**A.** Its solubility kinetic is 19.5 µg/mL (≈ 56.3 µM).

**Q.** Which solubility kinetic does the source give for CCOC(=O)CNc1ccc(OC(F)(F)F)cc1 here?
**A.** Its solubility kinetic is 7.2 µg/mL (≈ 27.4 µM).

**Q.** For Cc1ccc(NS(=O)(=O)c2ccc(NC(=O)C3CC3)cc2)cc1C, which solubility kinetic is on record?
**A.** The solubility kinetic was 6.9 µg/mL (≈ 20 µM).

**Q.** For CC(C)N(Cc1cc2ccccc2[nH]c1=O)C(=O)c1ccco1, which solubility kinetic is on record?
**A.** The solubility kinetic was over 46.6 µg/mL.

**Q.** With O=C(COC(=O)c1c(Cl)cccc1Cl)NCC1CCCO1 (configuration not stated) as the compound, how does the solubility kinetic read?
**A.** Its solubility kinetic is over 49.8 µg/mL.

**Q.** For CCCOc1ccc(S(=O)(=O)Nc2ccccn2)c2ccccc12, which solubility kinetic is on record?
**A.** The solubility kinetic was under 0.4 µg/mL.

**Q.** Which solubility kinetic does the source give for NS(=O)(=O)c1ccc(CNC(=O)c2ccc(NS(=O)(=O)c3cccs3)cc2)cc1 here?
**A.** The solubility kinetic was over 67.7 µg/mL.

**Q.** For COc1ccc(Cl)cc1N=Cc1c(O)n(C)c(=O)n(C)c1=O, which solubility kinetic is on record?
**A.** Its solubility kinetic is 2 µg/mL (≈ 6.18 µM).

**Q.** With c1ccc2sc(NCC3CCCO3)nc2c1 (configuration not stated) as the compound, how does the solubility kinetic read?
**A.** The solubility kinetic was over 35.1 µg/mL.

**Q.** With Cc1cccc(N2CC(C(=O)Nc3ccccc3N3CCOCC3)CC2=O)c1C (configuration not stated) as the compound, how does the solubility kinetic read?
**A.** The solubility kinetic was over 59 µg/mL.

**Q.** For Cc1ccc(CN(C)c2nc(-c3cccnc3)nc3ccccc23)o1, which solubility kinetic is on record?
**A.** The solubility kinetic was 15.5 µg/mL (≈ 46.9 µM).

**Q.** With N#CCCN(Cc1cccnc1)C(=S)NC1CC2C=CC1C2 (configuration not stated) as the compound, how does the solubility kinetic read?
**A.** Its solubility kinetic is over 46.9 µg/mL.
